Common to all, as to format: in vivo
Assay [1] has as its system Plutella xylostella Larva. Kind of assay: diamondback moth (DBM) bioassay. The settings on record: 100 ppm, residual on diet, evaluated five days later, confirmed with three larvae. How it is done:
(§1) For each compound tested, a stock solution of 3000 ppm was prepared by diluting 0.008 gram of each compound into 2.67 mL of acetone and further diluting with water to make the final concentrations used for the various screens, as follows:
In the diamondback moth (DBM) bioassay, a single larva was exposed to a diet with a surface that had been coated with a 100 ppm solution, and evaluated five days later.
(§2) Since only a single replicate was used for the DBM and SCR screens, confirmation of mortality in an additional evaluation with three larvae at the 100 ppm rate was required to substantiate the initial observation of activity.

In assay [2] the test system is Tetranychus urticae Motiles. Put plainly: mite contact (MIC) bioassay. The following applies: 300 ppm, contact on bean leaf, evaluated five days later. The procedure: as §1
In the mite contact (MIC) bioassay, approximately 20 motile mites confined on a cowpea leaf were sprayed with a 300 ppm concentration and evaluated five days later.
as §2

The next assay deals with Tetranychus urticae Eggs. Put plainly: mite ovicide (MIOV) bioassay. The settings on record: 100 ppm, contact on bean leaf, egg hatch evaluated nine days later. The procedure:
as §1
In the mite ovicide (MIOV) bioassay, approximately 30 mite eggs on cowpea foliage were sprayed with a 100 ppm solution and egg hatch was evaluated nine days later.
as §2

As to `FCCn1cc(-c2ccc(Cl)s2)cn1` [Compound 6, 1-(2-fluoroethyl)-4-(5-chloro-2-thienyl)pyrazole], the “Pesticidal Activity DBM (control)” value in assay [1] worked out at 100%. For the same compound, the “Pesticidal Activity MIC (control)” value in assay [2] worked out at 100%. In the assay on Tetranychus urticae Eggs, the “Pesticidal Activity MIOV (control)” value is listed as 100%.

Regarding `CCOC(=O)c1sc(-c2cnn(CCF)c2)nc1C(F)(F)F` [Compound 7, Ethyl 2-[1-(2-fluoroethyl)-4-pyrazolyl]-4-trifluoromethyl-5-thiazolecarboxylate], the “Pesticidal Activity MIC (control)” value in assay [2] is on record as 100%. Further, the “Pesticidal Activity MIOV (control)” value in the assay with Tetranychus urticae Eggs is 100%.

For the compound `FCCn1cc(-c2cccc(Cl)n2)cn1` [Compound 8, 1-(2-fluoroethyl)-4-(6-chloro-2-pyridyl)pyrazole], the “Pesticidal Activity MIC (control)” value in assay [2] is 100%. In the assay on Tetranychus urticae Eggs, the “Pesticidal Activity MIOV (control)” value is 100%.

For the compound `FCCn1cc(C#Cc2ccc(Cl)cc2)cn1` [Compound 9, 1-(2-fluoroethyl)-4-[(4-chlorophenyl)ethynyl]pyrazole], the “Pesticidal Activity MIC (control)” value in assay [2] is recorded as 100%. Besides, the “Pesticidal Activity MIOV (control)” value in the assay on Tetranychus urticae Eggs was determined as 100%.

On to `FCCn1cc(C#Cc2cccnc2)cn1` [Compound 10], for which, in assay [2], the “Pesticidal Activity MIC (control)” value is on record as 100%. Also, the “Pesticidal Activity MIOV (control)” value in the assay on Tetranychus urticae Eggs was determined as 100%.

As for “Isopropyl 1-(2-fluoroethyl)-3(or 5)-nitro-1H-pyrazole-5 (or 3)-carboxylate [Compound 1]”, in assay [1], the “Pesticidal Activity DBM (control)” value turned out to be 100%. Besides, in assay [2], the “Pesticidal Activity MIC (control)” value is reported as 100%.

(Values after patent publication US20040157892A1, “Pesticidal fluoroethyl pyrazoles” (CROMPTON CO./Cie, priority 2003, published 2004).)
